Test results taken from PubChem BioAssay (NCI).
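Test compounds were applied to cells in 96-well plates for 48 hours at 5 doses. GI50: concentration for 50% inhibition of growth. TGI denotes the concentration required for complete inhibition of growth.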

What was measured:
Experiment in all cases: NCI anticancer screen, dose series, 48 h
ACHN renal = test system: ACHN renal
BT-549 breast = test system: BT-549 breast
RPMI-8226 leukemia = test system: RPMI-8226 leukemia
MDA-MB-435 = test system: MDA-MB-435
OVCAR-3 ovarian = test system: OVCAR-3 ovarian
NCI-H460 lung = test system: NCI-H460 lung
HS 578T breast = test system: HS 578T breast
MDA-MB-231 breast = test system: MDA-MB-231 breast
HOP-92 NSCLC = test system: HOP-92 NSCLC
SK-MEL-5 melanoma = test system: SK-MEL-5 melanoma
CCRF-CEM leukemia = test system: CCRF-CEM leukemia
LOX IMVI melanoma = test system: LOX IMVI melanoma
SNB-19 CNS = test system: SNB-19 CNS
NCI-H23 lung = test system: NCI-H23 lung
A498 renal = test system: A498 renal
NCI-H522 lung = test system: NCI-H522 lung
SF-295 CNS = test system: SF-295 CNS
U251 CNS = test system: U251 CNS
SF-268 CNS = test system: SF-268 CNS
IGROV1 ovarian = test system: IGROV1 ovarian
UO-31 renal = test system: UO-31 renal
SR leukemia = test system: SR leukemia
MCF7 breast = test system: MCF7 breast
OVCAR-8 ovarian = test system: OVCAR-8 ovarian
HT29 colon = test system: HT29 colon
TK-10 renal = test system: TK-10 renal
HL-60(TB) leukemia = test system: HL-60(TB) leukemia
DU-145 prostate = test system: DU-145 prostate
COLO 205 colon = test system: COLO 205 colon
MALME-3M melanoma = test system: MALME-3M melanoma
SF-539 CNS = test system: SF-539 CNS
M14 melanoma = test system: M14 melanoma
CAKI-1 renal = test system: CAKI-1 renal
SK-MEL-28 melanoma = test system: SK-MEL-28 melanoma
T-47D breast = test system: T-47D breast
HCT-15 colon = test system: HCT-15 colon
786-0 renal = test system: 786-0 renal
HOP-62 NSCLC = test system: HOP-62 NSCLC
SK-OV-3 ovarian = test system: SK-OV-3 ovarian
NCI-H226 lung = test system: NCI-H226 lung
K-562 leukemia = test system: K-562 leukemia
OVCAR-5 ovarian = test system: OVCAR-5 ovarian
RXF 393 renal = test system: RXF 393 renal
UACC-257 melanoma = test system: UACC-257 melanoma
SNB-75 CNS = test system: SNB-75 CNS
HCT-116 colon = test system: HCT-116 colon
SW-620 colon = test system: SW-620 colon
A549 NSCLC = test system: A549 NSCLC
SN12C renal = test system: SN12C renal
OVCAR-4 ovarian = test system: OVCAR-4 ovarian
NCI/ADR-RES ovarian = test system: NCI/ADR-RES ovarian
UACC-62 melanoma = test system: UACC-62 melanoma
KM12 colon = test system: KM12 colon
HCC-2998 colon = test system: HCC-2998 colon
MOLT-4 leukemia = test system: MOLT-4 leukemia
PC-3 prostate = test system: PC-3 prostate

CCCCCCC(O)(c1ccc(F)cc1)C(CN1CCOCC1)c1ccccc1 (configuration not stated)
GI50 (ACHN renal): 12.3 µM
TGI (ACHN renal): 24.9 µM
GI50 (BT-549 breast): 14.7 µM
TGI (BT-549 breast): 29.6 µM
GI50 (RPMI-8226 leukemia): 5.48 µM
TGI (RPMI-8226 leukemia): 21.7 µM
GI50 (MDA-MB-435): 15.8 µM
TGI (MDA-MB-435): 41.7 µM
GI50 (OVCAR-3 ovarian): 12.5 µM
TGI (OVCAR-3 ovarian): 25.4 µM
GI50 (NCI-H460 lung): 13.4 µM
TGI (NCI-H460 lung): 29.3 µM
GI50 (HS 578T breast): 14.8 µM
TGI (HS 578T breast): 40 µM
GI50 (MDA-MB-231 breast): 11.4 µM
TGI (MDA-MB-231 breast): 26.5 µM
GI50 (HOP-92 NSCLC): 12.8 µM
TGI (HOP-92 NSCLC): 26.1 µM
GI50 (SK-MEL-5 melanoma): 4.64 µM
TGI (SK-MEL-5 melanoma): 18.6 µM
GI50 (CCRF-CEM leukemia): 13.9 µM
TGI (CCRF-CEM leukemia): 32.9 µM
GI50 (LOX IMVI melanoma): 16.2 µM
TGI (LOX IMVI melanoma): 31.1 µM
GI50 (SNB-19 CNS): 12.8 µM
TGI (SNB-19 CNS): 27.5 µM
GI50 (NCI-H23 lung): 11.1 µM
TGI (NCI-H23 lung): 30.6 µM
GI50 (A498 renal): 11.6 µM
TGI (A498 renal): 30 µM
GI50 (NCI-H522 lung): 8.14 µM
TGI (NCI-H522 lung): 22.3 µM
GI50 (SF-295 CNS): 15.3 µM
TGI (SF-295 CNS): 31.5 µM
GI50 (U251 CNS): 12.2 µM
TGI (U251 CNS): 25.1 µM
GI50 (SF-268 CNS): 13 µM
TGI (SF-268 CNS): 28.4 µM
GI50 (IGROV1 ovarian): 12.8 µM
TGI (IGROV1 ovarian): 41.9 µM
GI50 (UO-31 renal): 11.6 µM
TGI (UO-31 renal): 26.4 µM
GI50 (SR leukemia): 11.9 µM
TGI (SR leukemia): 29.8 µM
GI50 (MCF7 breast): 11.7 µM
TGI (MCF7 breast): 24.4 µM
GI50 (OVCAR-8 ovarian): 14.2 µM
TGI (OVCAR-8 ovarian): 34.8 µM
GI50 (HT29 colon): 5.37 µM
TGI (HT29 colon): 19.9 µM
GI50 (TK-10 renal): 18 µM
TGI (TK-10 renal): 32.8 µM
GI50 (HL-60(TB) leukemia): 12 µM
TGI (HL-60(TB) leukemia): 31.6 µM
GI50 (DU-145 prostate): 14.6 µM
TGI (DU-145 prostate): 28.7 µM
GI50 (COLO 205 colon): 12.1 µM
TGI (COLO 205 colon): 27 µM
GI50 (MALME-3M melanoma): 15 µM
TGI (MALME-3M melanoma): 33.4 µM
GI50 (SF-539 CNS): 15.6 µM
TGI (SF-539 CNS): 29.6 µM
GI50 (M14 melanoma): 16.3 µM
TGI (M14 melanoma): 34.4 µM
GI50 (CAKI-1 renal): 12.5 µM
TGI (CAKI-1 renal): 28.9 µM
GI50 (SK-MEL-28 melanoma): 16.4 µM
TGI (SK-MEL-28 melanoma): 34.5 µM
GI50 (T-47D breast): 10.4 µM
TGI (T-47D breast): 23.8 µM
GI50 (HCT-15 colon): 11.5 µM
TGI (HCT-15 colon): 24.7 µM
GI50 (786-0 renal): 13.2 µM
TGI (786-0 renal): 27.3 µM
GI50 (HOP-62 NSCLC): 19.2 µM
TGI (HOP-62 NSCLC): 35.3 µM
GI50 (SK-OV-3 ovarian): 16 µM
TGI (SK-OV-3 ovarian): 36.7 µM
GI50 (NCI-H226 lung): 8.63 µM
TGI (NCI-H226 lung): 24.8 µM
GI50 (K-562 leukemia): 14.9 µM
TGI (K-562 leukemia): 37.7 µM
GI50 (OVCAR-5 ovarian): 13.8 µM
TGI (OVCAR-5 ovarian): 26.8 µM
GI50 (RXF 393 renal): 5.26 µM
TGI (RXF 393 renal): 19 µM
GI50 (UACC-257 melanoma): 10.3 µM
TGI (UACC-257 melanoma): 27.3 µM
GI50 (SNB-75 CNS): 14.4 µM
TGI (SNB-75 CNS): 35.9 µM
GI50 (HCT-116 colon): 8.53 µM
TGI (HCT-116 colon): 24.6 µM
GI50 (SW-620 colon): 12.2 µM
TGI (SW-620 colon): 26.3 µM
GI50 (A549 NSCLC): 11.7 µM
TGI (A549 NSCLC): 29.3 µM
GI50 (SN12C renal): 12.7 µM
TGI (SN12C renal): 28.3 µM
GI50 (OVCAR-4 ovarian): 14.2 µM
TGI (OVCAR-4 ovarian): 29.8 µM
GI50 (NCI/ADR-RES ovarian): 12.1 µM
TGI (NCI/ADR-RES ovarian): 34.2 µM
GI50 (UACC-62 melanoma): 11.4 µM
TGI (UACC-62 melanoma): 27.7 µM
GI50 (KM12 colon): 12.4 µM
TGI (KM12 colon): 28.4 µM
GI50 (HCC-2998 colon): 13.8 µM
TGI (HCC-2998 colon): 29.3 µM
GI50 (MOLT-4 leukemia): 13.3 µM
TGI (MOLT-4 leukemia): 32.4 µM
GI50 (PC-3 prostate): 5.24 µM
TGI (PC-3 prostate): 21.3 µM
